Results taken from patent publication US20240269096A1, “Rapid Onset Therapeutic Ketosis Enabled by D-BetaHydroxyButyric Acid Systems, Compounds and Methods for Sepsis Protection and Enhanced Medical Recovery” (American Ketone Therapeutics LLC, priority 2022, published 2024).
Where “and” joins values, the source holds several entries; their conditions need not be identical. Identical values can stand only once. Each block holds one molecule with its values, some of them ahead of it.

What was measured:
[1] = Continuous glucose monitoring (Abbot Libre CGM) with carbohydrate challenge; assay type: in vivo; conditions: 10 g administered 45 minutes before 50 g carbohydrate ingestion; versus unsupplemented ingestion
Text: FIG. 11 is a graphical illustration of continuous monitoring of body glucose levels. FIG. 11 depicts continuous glucose monitoring levels with carbohydrate challenge documented by Abbot Libre Continuous Glucose Monitoring (CGM) device. In this illustrative embodiment, glucose levels from a 50 g carbohydrate ingestion are depicted unaided by free D-BetaHydroxyButyric Acid on the left and repeated the following day with two 50 g carbohydrate ingestions accompanied by 10 g free D-BetaHydroxyButyric Acid administered 45 minutes before the carbohydrate insult. […] As free D-BetaHydroxyButyric Acid can lower glucose while rapidly increasing ketone levels, it is believed that obtaining high ketones while lowering glucose will yield additional stroke recovery benefits for high glucose sensitive individuals suffering from sepsis and may be considered in lieu of insulin administration.

[2] = Continuous Ketone Meter (CKM) monitoring of body ketone levels and deep sleep; assay type: in vivo; conditions: 5 grams consumed 45 minutes prior to bedtime
Text: FIG. 12 is a graphical illustration of continuous monitoring of body ketone levels resulting in improved deep sleep time due to enhanced D-BHB levels according to the claimed invention. It is noteworthy that consumption of even small amounts of free D-BetaHydroxyButyric Acid can give rise to therapeutic ketosis levels as measured by Continuous Ketone Meter (CKM). […] While free D-BetaHydroxyButyric Acid is not a sedative, even small amounts can greatly improve deep sleep quantity and quality. It is an intended and foreseeable embodiment application to increase deep sleep with free D-BetaHydroxyButyric Acid with the aim of guarding against sepsis, improving hospital recovery and enhanced resiliency.

[3] = Blood ketone levels by Abbott blood test strip after oral free D-BHB; assay type: in vivo, human
Text: FIG. 9 is a graphical illustration of D-BHB exogenous ketone blood levels. The above Abbot blood ketone meter evidenced by Abbott blood test strip depicts the rapid rise in blood ketone levels from 0.1 mmol/L (absence of ketosis) to 2.7 mmol/L (ketosis) after oral bolus administration of 15 grams of bioidentical free D-BetaHydroxyButyric Acid. The ketone levels depicted are attained in the absence of a salt as well as without ester bonds. It is the free acid D-BHB exogenously administered which is bio-identical to the endogenous D-BHB free acid generated by the human body. The bioidentical ketone body D-BHB is first and foremost an energy source, which is directly and preferentially metabolized by the brain. D-BHB is also active as a signaling mechanism and neuro-inflammation reduction agent, resulting in broad and beneficial brain bioenergy related benefits.
FIG. 10 is a graphical illustration of D-BHB exogenous ketone blood levels. FIG. 10 details rapid ketosis within 45 minutes confirmed by Abbott blood test strip after 10 g D-BHB with palatability agent administered by oral drink. Blood ketone levels document rise from 0.2 mmol/L to 1.8 mmol/L and 0.6 mmol/L to 1.9 mmol/L in a variety of test subjects. FIG. 10 reinforces the fact that supplementation by utilizing free D only BetaHydroxyButyric Acid without ketone salt or ketone ester is a reliable, reproduceable method and system for rapid ketone level increase for stroke recovery and maintenance. While amounts of free D only BetaHydroxyButyric Acid taken for stroke effects may vary, it is an anticipated preferred embodiment that levels between 5 and 30 grams of D only BetaHydroxyButyric Acid are taken as needed for optimum recovery. Alternate embodiments may include lower or higher amounts, however, experimental evidence has confirmed optimal administration in this range for a wide variety of other applications.

[4] = compared with ketone salts; FIG. 5 literature data; cited from earlier work
[5] = system: LPS-induced myocardial injury and cardiac dysfunction; conditions: mouse model; study utilized the synthetic ketone ester; cited from earlier work
NLRP3 inflammasome = target: T1, NLRP3 inflammasome (Homo sapiens, UniProt Q96P20); conditions: independently of GPR109A binding or mitochondrial oxidation; cited from earlier work
T1 construct: host or cells: macrophages
T1 sequence (Q96P20 whole entry): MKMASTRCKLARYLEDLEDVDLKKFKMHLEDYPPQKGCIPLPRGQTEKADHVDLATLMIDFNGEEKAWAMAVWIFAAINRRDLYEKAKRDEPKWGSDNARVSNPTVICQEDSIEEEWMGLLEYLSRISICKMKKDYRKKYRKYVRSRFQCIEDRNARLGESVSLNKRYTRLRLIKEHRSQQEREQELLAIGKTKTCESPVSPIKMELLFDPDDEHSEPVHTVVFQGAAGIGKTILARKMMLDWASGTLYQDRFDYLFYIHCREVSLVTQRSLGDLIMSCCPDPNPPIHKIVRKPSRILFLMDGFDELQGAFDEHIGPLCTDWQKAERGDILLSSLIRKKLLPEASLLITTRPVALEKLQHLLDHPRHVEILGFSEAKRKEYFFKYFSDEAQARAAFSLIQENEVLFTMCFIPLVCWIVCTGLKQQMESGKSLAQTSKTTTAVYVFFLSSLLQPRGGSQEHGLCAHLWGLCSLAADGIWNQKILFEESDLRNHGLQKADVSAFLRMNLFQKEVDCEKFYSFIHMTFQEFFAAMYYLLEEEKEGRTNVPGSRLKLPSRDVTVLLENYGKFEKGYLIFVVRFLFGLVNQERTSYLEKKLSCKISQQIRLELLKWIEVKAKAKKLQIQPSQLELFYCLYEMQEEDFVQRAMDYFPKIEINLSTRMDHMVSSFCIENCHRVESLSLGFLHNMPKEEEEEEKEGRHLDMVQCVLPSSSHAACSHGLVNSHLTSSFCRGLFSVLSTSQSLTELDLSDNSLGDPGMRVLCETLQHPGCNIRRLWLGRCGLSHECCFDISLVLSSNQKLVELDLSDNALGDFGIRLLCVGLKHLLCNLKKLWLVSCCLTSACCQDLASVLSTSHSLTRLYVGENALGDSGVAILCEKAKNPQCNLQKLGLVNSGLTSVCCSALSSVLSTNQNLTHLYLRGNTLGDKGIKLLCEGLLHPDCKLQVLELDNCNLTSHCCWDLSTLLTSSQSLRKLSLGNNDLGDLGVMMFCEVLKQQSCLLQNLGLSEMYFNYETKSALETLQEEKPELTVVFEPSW

increase in ketone level (CKM) [2]: 1.5 mmol/L
time to ketosis ([3]; 10 g with palatability agent by oral drink): ≤ 45 min
blood ketone levels after administration ([3]; 10 g with palatability agent by oral drink, within 45 minutes, rise from 0.2 and 0.6 mmol/L respectively, different test subjects): 1.8 mmol/L and 1.9 mmol/L
blood ketone levels after administration ([3]; oral bolus of 15 grams, rise from 0.1 mmol/L (absence of ketosis)): 2.7 mmol/L
SMILES: C[C@@H](O)CC(=O)O [D-BHB, D-β-HydroxyButyric Acid]
glucose spike after carbohydrate ingestion [1]: the rapid glucose spike depicted in the unsupplemented ingestion is not found
quantity of deep sleep [2]: enhance the quantity of deep sleep obtained

SMILES: C[C@@H](O)CCOC(=O)C[C@@H](C)O [ketone ester, (R)-3-hydroxybutyl (R)-3-hydroxybutyrate]
ketone level response [4]: higher ketone level response

SMILES: CC(O)CC(=O)O (stereo not drawn) [β-OHB, β-Hydroxybutyrate]
effect on LPS-induced myocardial injury and cardiac dysfunction [5]: prevent LPS-induced myocardial injury and cardiac dysfunction
effect on NLRP3 inflammasome in macrophages (NLRP3 inflammasome): inhibits the NLRP3 inflammasome
